Source: patent US20230321179A1, “N-ACYL AMINO ACID PRODUCTS AND USES” (THE REGENTS OF THE UNIVERSITY OF MICHIGAN, priority 2020, published 2023)
Blank lines part the entries; values can stand above or below the compound they belong to.

How the values were obtained:
[1] = biological target: T1, PPARα (Homo sapiens, UniProt Q07869); experiment: PPREx3-TK-luciferase PPARα reporter assay in COS-1 cells; assay type: cell-based; conditions: 24 h
T1 construct: expressed in transfected cells; host or cells: COS-1
T1 sequence (Q07869 1-468): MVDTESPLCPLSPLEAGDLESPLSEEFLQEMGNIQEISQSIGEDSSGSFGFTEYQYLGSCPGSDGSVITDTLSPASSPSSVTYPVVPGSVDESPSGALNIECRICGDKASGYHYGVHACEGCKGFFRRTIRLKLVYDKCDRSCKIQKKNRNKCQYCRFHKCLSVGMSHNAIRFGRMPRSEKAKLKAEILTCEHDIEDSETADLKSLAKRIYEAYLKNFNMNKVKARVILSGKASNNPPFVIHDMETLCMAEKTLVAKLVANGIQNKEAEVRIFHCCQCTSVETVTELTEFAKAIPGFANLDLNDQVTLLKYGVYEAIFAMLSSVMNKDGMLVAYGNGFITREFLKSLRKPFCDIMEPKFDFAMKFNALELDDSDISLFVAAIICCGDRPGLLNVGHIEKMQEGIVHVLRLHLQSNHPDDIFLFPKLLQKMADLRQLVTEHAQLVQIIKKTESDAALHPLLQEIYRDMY
Procedure: COS-1 and HepG2 cells were obtained from the American Type Culture Collection (ATCC) and cultured at 37° C. and 5% CO2 in Dulbecco’s Modified Eagle Medium (DMEM, Gibco) supplemented with 10% fetal bovine serum (FBS, Sigma-Aldrich) and 1% Penicillin-Streptomycin (Pen-Strep, Gibco). For luciferase assays, COS-1 cells were seeded in 96-well plates. At 60-70% confluence, transfection was performed using Lipofectamine 3000 (Invitrogen) with PPREx3-TK-luciferase, PPARα and Renilla constructs at 80 ng, 10 ng and 10 ng, respectively. 24 h post-transfection, cells were serum-starved and treated with 10 µM of the PPARα activator WY-14643 (Cayman Chemicals, 70730), 1 mM of glycine or tripepetide glycine-glycine-leucine or 10 µM of N-acyl amino acids for 24 h (Cayman Chemicals, C20:4-Gly 90051, C18:1-Leu 20064). Luciferase activity was assessed using the Dual-Luciferase Reporter Assay System (Promega) and normalized by Renilla.

[2] = system: Apolipoprotein E-deficient (Apoe-/-) mice; experiment: Treatment of atherosclerosis in Western diet-fed mice with I.P. N-oleoyl leucine; assay type: in vivo; conditions: 7.5 mg/kg/d I.P., 4 weeks
Procedure: Apolipoprotein E-deficient (Apoe-′-) mice were fed a Western diet (WD) for 8 weeks. Mice were randomized to receive 7.5 mg/kg/d (I.P.) N-oleoyl leucine (C18:1-Leu) or equivalent amounts of oleic acid (C18:1) for an additional 4 weeks on the WD (n=10).

[3] = system: HepG2 cells; experiment: TG biosynthesis and hydrolysis by [3H]-acetate incorporation; assay type: cell-based; conditions: 10 µM; for rate of TG biosynthesis: 3 h [3H]-acetate; for rate of TG hydrolysis: additional 3 h after [3H]-acetate withdrawal
Procedure: For the TG biosynthesis and hydrolysis assays, HepG2 cells were seeded in 12-well plates. At 60-70% confluence, cells were treated with N-acyl amino acids (10 µM) or vehicle (EtOH) in serum-free medium supplemented with 0.1% BSA and stimulated for 3 h at 37° C. with [3H]-acetate (3.3 µCi/ml, ART 0202, American Radiolabeled Chemicals) to assess the rate TG biosynthesis. In some wells, the cells were washed twice with PBS ([3H]-acetate withdrawal) and incubated for additional 3 h with N-acyl amino acids (10 µM) or vehicle (EtOH) in serum-free medium supplemented with 0.1% BSA to assess the rate TG hydrolysis. At the end of the above incubation periods, cells were washed with twice with PBS. Cellular lipids were extracted using hexane (≥99%, Sigma-Aldrich 32293) and isopropanol (≥99.5%, Fisher Scientific A426-4) at a 3:2 ratio (v:v), and the hexane phase was left to evaporate for 48 h. Next, lipids were separated by thin layer chromatography (TLC) on silica gel plates (60 F254, M1057150001, Fisher Scientific) and developed in hexane / ether (≥99.9%, 309966, Sigma-Alrich) / acetic acid (≥99.7%, A38-212, Fisher Scientific) at a 130:30:1.5 ratio (v:v:v). TG spots were visualized by iodine vapor (using an appropriate standard for identification) and [3H]-labels were counted by a Tri-Carb 2810TR liquid scintillation analyzer (PerkinElmer). Data were normalized to protein levels and presented as count per minutes (CPM)/mg cell protein.

[4] = system: C57BL/6J mice fed NASH diet; experiment: Treatment of NASH in mice with I.P. N-oleoyl leucine; assay type: in vivo; conditions: 10 mg/kg/d I.P.
Procedure: C57BL/6J mice were fed a standard diet (SD) or non-alcoholic steatohepatitis (NASH) diet for 16 weeks. After NASH confirmation, mice were randomized to receive 10 mg/kg/d (I.P.) N-oleoyl leucine (C18:1-Leu) or equivalent amounts of oleic acid (C18:1) or vehicle (EtOH) for an additional 6 weeks on the NASH diet. Control mice were fed the SD and administered vehicle.

[5] = system: HepG2 cells; experiment: Seahorse oxygen consumption rate and dependency on FAO; assay type: cell-based; conditions: 10 µM acute stimulation, increase attenuated by etomoxir 6 µM
Procedure: HepG2 cells were obtained from the American Type Culture Collection (ATCC) and cultured at 37° C. and 5% CO2 in Dulbecco’s Modified Eagle Medium (DMEM, Gibco) supplemented with 10% fetal bovine serum (FBS, Sigma-Aldrich) and 1% Penicillin-Streptomycin (Pen-Strep, Gibco). Oxygen consumption rate (OCR) and dependency on FAO were assessed using a Seahorse XFe96 Analyzer (Agilent). HepG2 cells were seeded at 2.5x10^4 cells/well in XF96 cell culture microplates (Agilent). The next day, XFe96 sensor cartridges were hydrated in accordance with the manufacturer’s instructions. Cells were treated (port 1) with N-acyl amino acids (10 µM) or vehicle (EtOH), Etomoxir (Agilent, 6 µM, port 2) and finally with rotenone+antimycin A (R/A, Agilent, port 3).

[6] = system: C57BL/6J mice fed NASH diet; experiment: NASH diet mouse model, oral treatment with tripeptide glycine-glycine-leucine, glycine or leucine; assay type: in vivo
Procedure: To explore the therapeutic potential of […] against NASH, an experimental approach to model advanced NAFLD was used. As described, C57BL/6J mice were fed a high-fat, high-fructose and high-cholesterol diet (NASH diet) for 12 weeks. After confirming NASH, the mice were randomized to receive orally […] at 0.125 or 0.5 mg/g/day, equivalent amounts of leucine, glycine or H2O for 12 additional weeks on NASH diet. Mice fed low-fat control diet (CD) and administered H2O served as control. Animal procedures were approved (PRO00008239) by the Institutional Animal Care & Use Committee of the University of Michigan (U-M) and performed in accordance with the institutional guidelines. Seven weeks-old male C57BL/were from Jackson Laboratories. After one week of acclimation, mice were fed ad libitum either low-fat control diet (CD, Research Diets D17072805, 10% fat) or high-fat, high-fructose and high-cholesterol diet (NASH diet, Research Diets D17010103). After confirming NASH, the mice were randomized to receive orally […] (Beijing SL Pharmaceutical) at 0.125 or 0.5 mg/g/day, equivalent amounts of leucine (0.17 mg/g/day, Sigma-AldrichL8912), glycine (0.33 mg/g/day, Sigma-Aldrich G5417) or H2O for 12 additional weeks on NASH diet. All histological procedures were performed by the In Vivo Animal Core (IVAC) Histology Laboratory at the U-M. Technicians were blinded to experimental groups. Formalin-fixed tissues were processed through graded alcohols and cleared with xylene followed by infiltration with molten paraffin using an automated VIP5 or VIP6 tissue processor (TissueTek, Sakura-Americas). Using a Histostar Embedding Station (ThermoFisher Scientific), tissues were then sectioned on a […] rotary microtome (ThermoFisher Scientific) at 4 μm thickness and mounted on glass slides. Slides were stained for hematoxylin and eosin (H&E, ThermoFisher Scientific). For Sirius Red staining, slides were treated with 0.2 phosphomolybdic acid for 3 min and transferred to 0.1% Sirius Red saturated in picric acid (Rowley Biochemical Inc.) for 90 min, then transferred to 0.01N hydrochloric acid for 3 min. Frozen section processing was used for Oil Red O staining. Formalin-fixed liver samples were cryoprotected in 20% sucrose at 4° C. overnight, blotted, then liquid nitrogen-snap frozen in OCT compound (Tissue-Tek, Cat #4583) and stored at -80° C. until ready for cryosectioning. Prior to sectioning, frozen blocks were brought up to about -20° C., then sectioned at 5 μm on a Cryotome SME (Thermo-Shandon, Cat# 77200227). Slides were stored at -80° C. until stained. Prior to staining, liver slides were thawed to room temperature for 30 min. Slides were post-fixed in 10% Neutral Buffered Formalin for 20 min, rinsed in DDW, followed by rinsing in 60% isopropanol before being placed in working Oil Red O-isopropanol stain (Rowley Biochemical Inc., H-503-1B) for 5 min. Slides were then rinsed in 60% isopropanol followed by three changes of DDW. Then, slides were nuclear counterstained in Harris Hematoxylin and mounted in Aqua-Mount (Lerner Laboratories, Cat# 13800) aqueous mounting media. Immunohistochemical staining was performed on a […] automated immunohistochemical stainer (Biocare Medical) with blocking for endogenous peroxidases and non-specific binding, followed by detection using a horseradish peroxidase biotin-free polymer based commercial detection system, disclosure with diaminobenzidine chromogen, and nuclear counterstaining with hematoxylin. Specific to F4/80, (Bio-Rad ABD Serotec, Cat# MCA497), the rat monoclonal primary antibody (clone CI:A3-1) was diluted to 1:400 in DaVinci Diluent (Biocare Medical, Cat# PD900) and incubated for 60 min followed by detection using Rat-on-Mouse HRP-Polymer, (Biocare Medical, Cat# RT517) 2-step probe-polymer incubation for 10 and 30 min respectively. H&E staining was used to score NAFLD activity score (NAS). Steatosis was scored from 0-3 (0: <5% steatosis; 1: 5-33%; 2: 34-66%; 3: >67%). […]

[7] = NASH diet, oral treatment 12 weeks
[8] = NASH diet, oral treatment 12 weeks, endpoint

Structure (SMILES): CCCCC/C=C\C/C=C\C/C=C\C/C=C\CCCC(=O)NCC(=O)O [N-arachidonoyl glycine]
- luciferase activity (PPARα activation), normalized by Renilla ([1]; 10 µM): significantly increased
- rate of TG biosynthesis [3]: attenuated
- rate of TG hydrolysis [3]: significantly accelerated
- oxygen consumption rate (OCR) [5]: significantly increased

Structure (SMILES): CCCCCCCC/C=C\CCCCCCCC(=O)NCC(=O)O [N-oleoyl glycine]
- luciferase activity (PPARα activation), normalized by Renilla ([1]; 10 µM): significantly increased

Structure (SMILES): NCC(=O)O [glycine]
- decrease of hepatic levels of N-oleoyl glycine, N-arachidonoyl glycine and N-oleoyl leucine in NASH ([6]; LC-MS/MS of liver, chronic treatment): rescued
- NASH diet-induced hepatomegaly [6, 7]: significantly reduced
- hepatic fibrosis (Sirius Red staining) [6, 7]: lower
- hepatic inflammation (F4/80 macrophage staining) [6, 7]: lower
- hepatic steatosis (histological analyses) [6, 7]: lower
- increase in plasma levels of alanine aminotransferase (ALT) [6, 8]: attenuated
- increase in plasma levels of aspartate aminotransferase (AST) [6, 8]: attenuated
- suppression of hepatic expression of PPARα and its target genes in NASH ([6]; RNA-sequencing, liver): reversed
- luciferase activity (PPARα activation), normalized by Renilla ([1]; concentrations of up to 1 mM): neither glycine or tripepetide glycine-glycine-leucine showed a significant effect

Now from value to compound, other results behind:

- luciferase activity (PPARα activation), normalized by Renilla ([1]; 10 µM): significantly increased
Structure (SMILES): Cc1cccc(Nc2cc(Cl)nc(SCC(=O)O)n2)c1C [WY-14643, reference compound]

- luciferase activity (PPARα activation), normalized by Renilla ([1]; 10 µM): significantly increased
Structure (SMILES): CCCCCCCC/C=C\CCCCCCCC(=O)N[C@@H](CC(C)C)C(=O)O [N-oleoyl leucine]
- body weight ([2]; Western diet, vs oleic acid): no significant effects
- plasma cholesterol ([2]; Western diet, vs oleic acid): no significant effects
- atherosclerotic plaque area ([2]; aortic sinus H&E, vs oleic acid): significantly lowers
- lesional macrophages ([2]; aortic sinus Mac-2, vs oleic acid): significantly lowers
- rate of TG biosynthesis [3]: attenuated
- rate of TG hydrolysis [3]: only N-arachidonoyl glycine (C20:4-Gly) significantly accelerated
- body weight ([4]; 6 weeks, NASH diet): lowers
- hepatomegaly ([4]; 6 weeks, liver weight to body weight ratio): significantly lowers
- circulating liver enzymes ([4]; 6 weeks, ALT, AST, ALP at endpoint): lowers
- NASH diet-induced hepatic and systemic inflammation ([4]; 6 weeks, F4/80, plasma CCL2, CCL5): significantly lowers
- diet-induced NASH ([4]; 6 weeks, H&E scoring, NAS): significantly lowers
- hepatic steatosis ([4]; 6 weeks, Oil red O histology): significantly lowers
- NASH diet-induced hepatic fibrosis ([4]; 6 weeks, Sirius red fibrosis score): significantly lowers
- systemic energy balance in NASH ([4]; CLAMS: RER, energy expenditure, food intake, total activity): no significant effect
- adiposity ([4]; NASH diet, NMR body composition): without affecting
- oxygen consumption rate (OCR) [5]: significantly increased
